Experimental data as given in article PMC10783034, “Pharmacokinetic and pharmacodynamic evaluation of the atypical tetracyclines chelocardin and amidochelocardin in murine infection models” (Microbiology Spectrum, 2023).
In brackets after ≈: the same amount, converted by molar mass. Several values for one entry are separate records, joined by “and”; a condition that tells them apart may be missing. Equal entries are not always repeated. Entries after “also recorded” stand apart in the source; their conditions may differ.

How the values were obtained:
[1] = Histopathological analysis of kidneys and livers after high-dose IV administration; assay type: in vivo, mice; conditions: 30 mg/kg IV; for histopathological examination of liver / kidney tissue discoloration: 24 hours after treatment; for overall acute toxicity assessment: high-dose groups
Description: The sustained high urine concentrations observed for CDCHD at 15 mg/kg IV raised the concern that accumulation might occur. We therefore performed histopathological analysis of livers and kidneys. A dose of 30 mg/kg of CHD and CDCHD was administered intravenously, and livers and kidneys were examined 24 hours after treatment to investigate signs of acute toxicity.
CHD and CDCHD were administered in single PK studies at the doses of 15 mg/kg and 30 mg/kg IV, at 15 mg/kg SC, and 15 mg/kg PO. Up to 25 µL of blood was collected from the lateral tail vein (n = 3 per time point) and time points t = 0.5, 1, 2, 4, and 8 hours. For 15 mg/kg IV- and PO-administered compounds, blood was also collected at time points t = 24 and 48 hours. For IV- and SC-administered compounds, blood was also collected at t = 0.25 hours. At t = 24 hours (15 mg/kg SC, 30 mg/kg IV) or 72 hours (15 mg/kg IV and PO), animals were euthanized to collect blood. At every blood collection, time point spontaneous urine was collected as well. Whole blood was collected into Eppendorf tubes coated with 0.5 M EDTA and immediately spun down at 15,870× g for 10 min at 4°C. Then, plasma was transferred into a new Eppendorf tube and stored at −80°C until analysis.
Approximately 3 µm thick sections of formalin-fixed, paraffin-embedded samples of liver and kidney were analyzed blinded, and randomized to the experimental groups by a trained veterinarian. […] Kidneys were analyzed for changes in the glomeruli (not found), tubular dilation (1 = mild or up to 20% of tubuli affected, 2 = moderate or 25-40% of tubuli affected, 3 = severe 50% or more), and inflammatory infiltrate in the pelvis (1 = mild, 2 = moderate, 3 = severe).

E. coli ATCC 25922 [2] = test: MIC determination; assay type: cell-based; conditions: MHB medium
Description: (§1) The assay was conducted as described previously ([54]) with the following modifications. The MIC was tested against the K. pneumoniae strain ATCC 43816 in an MHB (not cation-adjusted) medium. CHD and CDCHD were tested in concentrations ranging from 0.078 to 10 µg/mL. Moreover, the MIC was determined for the following strains: K. pneumoniae DSM-30104, E. faecium DSM-20477, S. aureus DSM-346, P. aeruginosa DSM-11128, A. baumannii DSM-30008, E. aerogenes DSM-30053, E. coli ATCC 25922, and E. coli C175-94. All strains were grown in MHB medium, except for E. faecium, which was grown in TSB. CHD, epi-CDH, and CDCHD were tested in concentrations ranging from 0.125 to 64 µg/mL as described previously ([19]).

E. faecium DSM-20477 = test: MIC determination; assay type: cell-based; conditions: TSB medium
Description: as §1

E. coli ATCC 25922 [3] = test: Neutropenic thigh infection model in CD-1 mice; assay type: in vivo; conditions: for bacterial burden in the thigh relative to stasis (pre-treatment group): 50 mg/kg IV QD; for tolerability: doses up to 50 mg/kg IV in the neutropenic thigh infection model
Description: (§2) The inoculum for K. pneumoniae ATCC 43816 was prepared freshly as described previously to yield 1 × 10^4 cfu/mL ([56]). The inoculum of the E. coli ATCC 25922 was diluted from a frozen stock to 1.4 × 10^6 cfu/ml. N = 6 animals per group were used for both tested strains. N = 4 mice were used in the pre-treatment group in the neutropenic thigh infection model with E. coli ATCC 25922. Mice were rendered neutropenic by administration of 150 mg/kg and 100 mg/kg cyclophosphamide intraperitoneally on days −4 and −1, respectively. On the day of infection (day 0), mice received 30 µL of the inoculum of K. pneumoniae ATCC 43816 into each lateral thigh under isoflurane anesthesia, corresponding to 6 × 10^2 cfu/mouse. In the model with E. coli, mice received 50 µL of the inoculum of E. coli into each lateral thigh under isoflurane anesthesia, corresponding to 1.4 × 10^5 cfu/mouse. Whilst still under anesthesia, mice were administered a dose of Buprenorphine (0.03 mg/kg) subcutaneously for pain relief. 24 hours after infection, mice were euthanized by slowly introducing CO2 and cardiac puncture to remove blood from the heart immediately after death. Kidneys and thighs were aseptically removed. 24 hours after infection, the clinical score of every individual animal was assessed. Clinical scoring comprises the assessment of different parameters such as spontaneous behavior, posture, appearance, and provoked behavior. Each parameter was assessed with a score of 0 to 3 (ascending severity from 0 to 3). The humane endpoint was reached when the clinical score of a single parameter was 3 or if the total clinical score was higher than 8. Whole blood was collected into Eppendorf tubes coated with 0.5 M EDTA. Organs were homogenized in 0.9% NaCl solution. Organs and blood were plated onto agar plates in duplicates in serial dilutions and incubated at 37°C for 24 hours. 25 µL per dilution of the homogenized organ was spotted onto agar plates. In addition, 1 mL of homogenized organ is streaked onto an agar plate in technical duplicates. If no single colony is observed then, this would result in 0 cfu/mL. Thus, the threshold of detection is 0 log10 cfu/g. The groups used in the different neutropenic thigh infection models are found in Tables S4 through S7. In brief, levofloxacin with 3.3 mg/kg TID IP was used as a positive control antibiotic for the K. pneumoniae model, whereas ciprofloxacin with 20 mg/kg BID IV was used for the E. coli model, respectively. The rationale for TID dosing was based on the PK/PD index of fAUC/MIC for fluoroquinolones ([57] [–] [59]). […] Moreover, CHD and CDCHD were administered at 10 mg/kg SC QID (t = 1,3,5,7 hours), 15 mg/kg SC TID (t = 1,4,7 hours), and 50 mg/kg SC QD (t = 1 hour) (Tables S5 and S6). In the E. coli neutropenic thigh infection model, CHD and CDCHD, respectively, were administered at 50 mg/kg IV QD (t = 1 hour) and 15 mg/kg IV BID (t = 1 and 6 hours) (Table S7).
(§3) For the neutropenic thigh infection model with E. coli ATCC 25922, the thighs were regarded as two independent infection sites throughout the experiment. For statistical analysis, individual thighs (left and right) were treated as separate samples although these were not completely independent values. For the neutropenic thigh infection model with K. pneumoniae ATCC 43816, the individual thighs (left and right) were treated as one sample. For the efficacy models, the non-parametric Kruskal-Wallis test was used with GraphPad Prism 9.4.1. For the ascending urinary tract infection model, an ordinary one-way ANOVA with Dunnett’s multiple comparison test was used with GraphPad Prism 9.4.1.

K. pneumoniae ATCC 43816 = test: Neutropenic thigh infection model in CD-1 mice; assay type: in vivo
Description: as §2, §3

[4] = 24 hours after infection, CHD/CDCHD 10 mg/kg SC QD or BID, levofloxacin 3.3 mg/kg IP TID, vs vehicle
[5] = higher-dose studies: 10 mg/kg SC QID, 15 mg/kg SC TID, 50 mg/kg SC QD, levofloxacin 3.3 mg/kg IP TID

| SMILES | histopathological examination of liver [1] | kidney tissue discoloration [1] | overall acute toxicity assessment [1] | MIC (E. coli ATCC 25922 [2]) | MIC (E. faecium DSM-20477) [µg/mL] | bacterial burden in the thigh relative to stasis (pre-treatment group) (E. coli ATCC 25922 [3]) | tolerability (E. coli ATCC 25922 [3]) | bacterial burden in blood (K. pneumoniae ATCC 43816; [4]) | bacterial burden in the kidney (K. pneumoniae ATCC 43816; [5]) | also measured |
| --- | --- | --- | --- | --- | --- | --- | --- | --- | --- | --- |
| CC(=O)C1=C(O)[C@H](N)[C@@H]2Cc3c(c(O)c4c(O)c(C)ccc4c3C)C(=O)[C@]2(O)C1=O [CHD, chelocardin] | sporadic extramedullary erythropoiesis and thrombopoiesis | yellow tissue discoloration | no immediate toxicity red flags | 2 µg/ml and ~ 2 µg/ml | 4 (≈ 9.72 µM) | reduction of bacterial burden to levels below stasis | well tolerated | The same was found in blood | no statistically significant effect was observed | bacterial burden in kidney (E. coli ATCC 25922 [3]; 15 mg/kg IV BID): moderate reduction; bacterial burden in the thigh (E. coli ATCC 25922 [3]; 15 mg/kg IV BID): reduced bacterial burden in the thigh; kill in the thigh compared to the pre-treatment group (E. coli ATCC 25922 [3]; 50 mg/kg IV): ~1 log10-unit; reduction in the thigh compared to the vehicle (E. coli ATCC 25922 [3]; 50 mg/kg IV): 5 log10-unit; bacterial burden in the thigh (K. pneumoniae ATCC 43816; 10 mg/kg SC QID, 15 mg/kg SC TID, 50 mg/kg SC QD (all three dose levels)): no effect was observed in the thigh; bacterial burden in the kidney (K. pneumoniae ATCC 43816; 50 mg/kg SC QD): a slight reduction of bacterial burden; bacterial burden in blood (K. pneumoniae ATCC 43816; 50 mg/kg SC QD, similar range as levofloxacin, statistical significance missed): the bacterial burden was reduced |
| Cc1ccc2c(C)c3c(c(O)c2c1O)C(=O)C1(O)C(=O)C(C(N)=O)=C(O)C(N)C1C3 (stereo not drawn) [CDCHD, 2-carboxamido-2-deacetyl-chelocardin] | sporadic extramedullary erythropoiesis and thrombopoiesis; also recorded: a moderate reduction of glycogen, moderate anisokaryosis, and a moderate amount of double-nucleated cells | yellow tissue discoloration | no immediate toxicity red flags | 2 µg/ml and ~ 2 µg/ml | 2 (≈ 4.85 µM) | did not reduce bacterial load back to stasis | well tolerated | The same was found in blood | reduced bacterial burden in the kidney to apparent sterilization | bacterial burden in kidney (E. coli ATCC 25922 [3]; both IV groups (15 mg/kg IV BID and 50 mg/kg IV QD)): pronounced reduction of bacterial burden; bacterial burden in the kidney (K. pneumoniae ATCC 43816; 10 mg/kg SC BID, vs vehicle control, similar to levofloxacin, not statistically significant): a reduction of bacterial burden was observed in the kidney; bacterial burden in blood (K. pneumoniae ATCC 43816; 10 mg/kg SC QID, 15 mg/kg SC TID, 50 mg/kg SC QD (all three groups)): a reduction of bacterial burden was observed; bacterial burden in the thigh (K. pneumoniae ATCC 43816; 50 mg/kg SC QD): a statistically significant reduction of bacterial burden in the thigh was observed; reduction of bacterial burden in the thigh (K. pneumoniae ATCC 43816; 50 mg/kg SC QD): approximately one |
